How the values were obtained:
Assay type in all cases: cell-based
CRT1-RUT-C30 [1] = target: T1, CRT1-RUT-C30 (Trichoderma reesei, UniProt G0RGH7); experiment: inhibition of labelled cellobiose uptake in yeast; conditions: 5 mM labelled cellobiose, 25 mM inhibitor; pH 6.5, 28 °C
T1 construct: gene TRIREDRAFT_3405; full-length RUT-C30 version with longer N-terminus; codon-optimized synthetic gene, PGK1 promoter, centromeric plasmid in S. cerevisiae co-expressing N. crassa GH1-1

CDT-1 = target: T2, CDT-1 (Neurospora crassa, UniProt Q7SCU1); experiment: inhibition of labelled cellobiose uptake in yeast; conditions: 5 mM labelled cellobiose, 25 mM inhibitor; pH 6.5, 28 °C
T2 construct: full-length; PGK1 promoter, centromeric plasmid in S. cerevisiae co-expressing N. crassa GH1-1
T2 sequence (Q7SCU1 1-579): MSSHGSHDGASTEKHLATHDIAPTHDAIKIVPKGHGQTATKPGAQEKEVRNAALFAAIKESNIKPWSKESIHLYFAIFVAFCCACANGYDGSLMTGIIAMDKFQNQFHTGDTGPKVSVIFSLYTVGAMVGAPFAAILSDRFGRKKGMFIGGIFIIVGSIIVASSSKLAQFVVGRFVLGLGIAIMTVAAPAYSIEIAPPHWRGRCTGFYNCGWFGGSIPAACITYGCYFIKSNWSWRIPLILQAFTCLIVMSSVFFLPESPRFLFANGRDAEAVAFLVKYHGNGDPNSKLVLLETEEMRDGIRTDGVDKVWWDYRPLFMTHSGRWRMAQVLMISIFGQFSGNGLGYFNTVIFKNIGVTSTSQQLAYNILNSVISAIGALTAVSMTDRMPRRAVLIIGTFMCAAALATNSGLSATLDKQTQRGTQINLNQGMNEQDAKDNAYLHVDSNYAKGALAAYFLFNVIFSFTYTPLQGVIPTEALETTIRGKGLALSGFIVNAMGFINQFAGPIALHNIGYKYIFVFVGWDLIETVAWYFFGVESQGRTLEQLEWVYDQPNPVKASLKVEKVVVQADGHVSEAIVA

CRT1-RUT-C30 [2] = target: T1, CRT1-RUT-C30; experiment: radiolabelled sugar uptake in yeast; conditions: labelled compound; zero-trans uptake, 100 mM potassium phosphate pH 6.5, 28 °C
CDT-2 = target: T3, CDT-2 (Neurospora crassa, UniProt Q7SD12); experiment: radiolabelled lactose uptake in yeast, […] min; conditions: labelled compound; 5 mM lactose, pH 6.5, 28 °C
T3 construct: full-length; PGK1 promoter, centromeric plasmid in S. cerevisiae co-expressing N. crassa GH1-1
T3 sequence (Q7SD12 1-525): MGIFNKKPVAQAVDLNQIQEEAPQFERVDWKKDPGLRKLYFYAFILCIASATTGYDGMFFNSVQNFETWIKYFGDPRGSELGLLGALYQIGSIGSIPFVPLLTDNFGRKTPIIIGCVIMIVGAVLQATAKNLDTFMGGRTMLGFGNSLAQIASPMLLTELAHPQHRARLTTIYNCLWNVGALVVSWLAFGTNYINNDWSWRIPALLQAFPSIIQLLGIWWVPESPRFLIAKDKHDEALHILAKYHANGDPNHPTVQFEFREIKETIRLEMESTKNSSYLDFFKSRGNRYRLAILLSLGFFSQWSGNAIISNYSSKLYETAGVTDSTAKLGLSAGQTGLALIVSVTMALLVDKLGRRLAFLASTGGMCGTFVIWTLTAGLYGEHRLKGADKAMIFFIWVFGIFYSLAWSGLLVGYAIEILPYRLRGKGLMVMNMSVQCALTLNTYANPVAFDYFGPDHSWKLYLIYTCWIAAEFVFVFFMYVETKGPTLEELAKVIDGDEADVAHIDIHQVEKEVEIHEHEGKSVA

T1 sequence (G0RGH7 entry or part of it): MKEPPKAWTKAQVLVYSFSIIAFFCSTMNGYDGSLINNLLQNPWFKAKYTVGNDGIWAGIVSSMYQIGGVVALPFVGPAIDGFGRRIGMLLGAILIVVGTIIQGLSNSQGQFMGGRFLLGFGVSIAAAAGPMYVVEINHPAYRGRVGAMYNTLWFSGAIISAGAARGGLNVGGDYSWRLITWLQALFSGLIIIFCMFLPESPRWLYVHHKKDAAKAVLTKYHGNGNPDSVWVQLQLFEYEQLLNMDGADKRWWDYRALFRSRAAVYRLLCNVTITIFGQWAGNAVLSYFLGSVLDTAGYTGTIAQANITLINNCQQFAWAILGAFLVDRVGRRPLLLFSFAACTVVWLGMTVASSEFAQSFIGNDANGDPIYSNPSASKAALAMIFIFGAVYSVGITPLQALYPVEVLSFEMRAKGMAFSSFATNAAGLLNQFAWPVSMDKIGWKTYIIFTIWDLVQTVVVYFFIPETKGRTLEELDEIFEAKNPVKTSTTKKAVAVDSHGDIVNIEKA

## OC[C@H]1O[C@@H](O[C@H]2[C@H](O)[C@@H](O)[C@H](O[C@H]3[C@H](O)[C@@H](O)C(O)O[C@@H]3CO)O[C@@H]2CO)[C@H](O)[C@@H](O)[C@@H]1O (some centres unmarked) [cellotriose]
CRT1-RUT-C30 [1]
  % inhibition at 25 mM: it was inhibited by cellobiose and to some extent by lactose and cellotriose
CDT-1
  % inhibition at 25 mM: it was inhibited by cellobiose and to some extent by lactose and cellotriose

## OC[C@H]1O[C@@H](O[C@H]2[C@H](O)[C@@H](O)C(O)O[C@@H]2CO)[C@H](O)[C@@H](O)[C@@H]1O (some centres unmarked) [cellobiose]
CRT1-RUT-C30 [2]
  Km: 3.1 ± 0.7 µM

## OC[C@H]1O[C@@H](O[C@H]2[C@H](O)[C@@H](O)C(O)O[C@@H]2CO)[C@H](O)[C@@H](O)[C@H]1O (some centres unmarked) [lactose]
CRT1-RUT-C30 [2]
  Km: 62.9 ± 27.4 µM
CDT-2
  radiolabelled lactose uptake in yeast, 20 min: higher lactose uptake was seen for the strains which expressed CDT-1, CDT-2 or CRT1-RUT-C30

Reference: article PMC7491124, “Studies on sugar transporter CRT1 reveal new characteristics that are critical for cellulase induction in Trichoderma reesei” (Biotechnology for Biofuels, 2020)
